Test results published in ChEMBL document CHEMBL5465560, “Selectivity Literature for EUbOPEN Chemogenomic Library” (2024).

How the values were obtained:
[1] = target: Mitogen-activated protein kinase 6 (Homo sapiens) (UniProt Q16659); details: at 10 µM
[2] = target: High affinity nerve growth factor receptor (Homo sapiens, UniProt P04629); assay: Selectivity interaction (KinaseProfiler screening (Millipore)) EUB0000601a NTRK1; details: at 3 µM
[3] = target: Protein kinase C gamma type (Homo sapiens) (UniProt P05129); assay: Selectivity interaction (Kinase screening (Upstate/Millipore)) EUB0000604a PRKCG
[4] = target: T1, Aurora kinase A (Homo sapiens) (UniProt O14965); assay: Selectivity interaction (Kinase panel (Carna Biosciences)) EUB0001542aTs STK6; details: at 1 µM
T1 sequence (whole entry): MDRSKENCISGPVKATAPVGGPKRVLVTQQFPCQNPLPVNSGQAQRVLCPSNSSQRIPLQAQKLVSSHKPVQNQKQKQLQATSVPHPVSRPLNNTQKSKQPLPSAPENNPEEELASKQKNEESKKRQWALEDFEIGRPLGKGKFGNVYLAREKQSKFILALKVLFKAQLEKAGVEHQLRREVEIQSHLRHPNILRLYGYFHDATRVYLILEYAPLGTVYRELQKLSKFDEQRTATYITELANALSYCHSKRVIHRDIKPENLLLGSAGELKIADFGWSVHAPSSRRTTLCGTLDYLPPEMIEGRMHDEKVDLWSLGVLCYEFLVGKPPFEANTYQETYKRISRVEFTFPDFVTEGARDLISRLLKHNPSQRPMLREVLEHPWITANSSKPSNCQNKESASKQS

[5] = target: Ribosomal protein S6 kinase alpha-5 (Homo sapiens) (UniProt O75582); details: at 10 µM
[6] = target: Serine/threonine-protein kinase 32B (Homo sapiens) (UniProt Q9NY57); assay: Selectivity interaction (KinomeScan (DiscoverX)) EUB0000229b STK32B; details: at 10 µM
[7] = target: T2, MAP/microtubule affinity-regulating kinase 4 (Homo sapiens) (UniProt Q96L34); assay: Selectivity interaction (KinomeScan (DiscoverX)) EUB0001079a MARK4; details: at 1 µM
T2 sequence (whole entry): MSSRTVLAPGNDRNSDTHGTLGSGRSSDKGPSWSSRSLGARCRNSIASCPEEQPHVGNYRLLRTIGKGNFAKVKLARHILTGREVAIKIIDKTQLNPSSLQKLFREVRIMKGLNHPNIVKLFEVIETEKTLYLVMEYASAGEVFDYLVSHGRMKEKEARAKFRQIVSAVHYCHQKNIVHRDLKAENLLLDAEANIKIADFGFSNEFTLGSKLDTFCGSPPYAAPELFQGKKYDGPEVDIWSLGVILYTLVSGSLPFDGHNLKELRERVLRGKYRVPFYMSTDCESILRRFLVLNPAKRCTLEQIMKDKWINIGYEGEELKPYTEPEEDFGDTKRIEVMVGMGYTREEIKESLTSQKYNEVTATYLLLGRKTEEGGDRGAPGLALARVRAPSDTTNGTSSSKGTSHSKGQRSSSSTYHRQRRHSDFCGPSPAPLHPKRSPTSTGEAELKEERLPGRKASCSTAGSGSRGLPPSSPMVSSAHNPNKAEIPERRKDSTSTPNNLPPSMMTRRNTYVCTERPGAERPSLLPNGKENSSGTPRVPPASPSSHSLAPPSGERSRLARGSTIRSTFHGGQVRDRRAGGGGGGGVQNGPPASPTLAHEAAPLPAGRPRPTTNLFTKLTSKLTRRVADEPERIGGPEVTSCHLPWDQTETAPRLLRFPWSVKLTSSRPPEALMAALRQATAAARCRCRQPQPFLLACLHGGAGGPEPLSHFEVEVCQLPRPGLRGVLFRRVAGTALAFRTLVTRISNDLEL

[8] = target: ALK tyrosine kinase receptor (Homo sapiens, UniProt Q9UM73); assay: (§1) Selectivity interaction (ProQinase) EUB0000171b ALK
ALK tyrosine kinase receptor, sequence (Q9UM73 19-1620 limits assumed): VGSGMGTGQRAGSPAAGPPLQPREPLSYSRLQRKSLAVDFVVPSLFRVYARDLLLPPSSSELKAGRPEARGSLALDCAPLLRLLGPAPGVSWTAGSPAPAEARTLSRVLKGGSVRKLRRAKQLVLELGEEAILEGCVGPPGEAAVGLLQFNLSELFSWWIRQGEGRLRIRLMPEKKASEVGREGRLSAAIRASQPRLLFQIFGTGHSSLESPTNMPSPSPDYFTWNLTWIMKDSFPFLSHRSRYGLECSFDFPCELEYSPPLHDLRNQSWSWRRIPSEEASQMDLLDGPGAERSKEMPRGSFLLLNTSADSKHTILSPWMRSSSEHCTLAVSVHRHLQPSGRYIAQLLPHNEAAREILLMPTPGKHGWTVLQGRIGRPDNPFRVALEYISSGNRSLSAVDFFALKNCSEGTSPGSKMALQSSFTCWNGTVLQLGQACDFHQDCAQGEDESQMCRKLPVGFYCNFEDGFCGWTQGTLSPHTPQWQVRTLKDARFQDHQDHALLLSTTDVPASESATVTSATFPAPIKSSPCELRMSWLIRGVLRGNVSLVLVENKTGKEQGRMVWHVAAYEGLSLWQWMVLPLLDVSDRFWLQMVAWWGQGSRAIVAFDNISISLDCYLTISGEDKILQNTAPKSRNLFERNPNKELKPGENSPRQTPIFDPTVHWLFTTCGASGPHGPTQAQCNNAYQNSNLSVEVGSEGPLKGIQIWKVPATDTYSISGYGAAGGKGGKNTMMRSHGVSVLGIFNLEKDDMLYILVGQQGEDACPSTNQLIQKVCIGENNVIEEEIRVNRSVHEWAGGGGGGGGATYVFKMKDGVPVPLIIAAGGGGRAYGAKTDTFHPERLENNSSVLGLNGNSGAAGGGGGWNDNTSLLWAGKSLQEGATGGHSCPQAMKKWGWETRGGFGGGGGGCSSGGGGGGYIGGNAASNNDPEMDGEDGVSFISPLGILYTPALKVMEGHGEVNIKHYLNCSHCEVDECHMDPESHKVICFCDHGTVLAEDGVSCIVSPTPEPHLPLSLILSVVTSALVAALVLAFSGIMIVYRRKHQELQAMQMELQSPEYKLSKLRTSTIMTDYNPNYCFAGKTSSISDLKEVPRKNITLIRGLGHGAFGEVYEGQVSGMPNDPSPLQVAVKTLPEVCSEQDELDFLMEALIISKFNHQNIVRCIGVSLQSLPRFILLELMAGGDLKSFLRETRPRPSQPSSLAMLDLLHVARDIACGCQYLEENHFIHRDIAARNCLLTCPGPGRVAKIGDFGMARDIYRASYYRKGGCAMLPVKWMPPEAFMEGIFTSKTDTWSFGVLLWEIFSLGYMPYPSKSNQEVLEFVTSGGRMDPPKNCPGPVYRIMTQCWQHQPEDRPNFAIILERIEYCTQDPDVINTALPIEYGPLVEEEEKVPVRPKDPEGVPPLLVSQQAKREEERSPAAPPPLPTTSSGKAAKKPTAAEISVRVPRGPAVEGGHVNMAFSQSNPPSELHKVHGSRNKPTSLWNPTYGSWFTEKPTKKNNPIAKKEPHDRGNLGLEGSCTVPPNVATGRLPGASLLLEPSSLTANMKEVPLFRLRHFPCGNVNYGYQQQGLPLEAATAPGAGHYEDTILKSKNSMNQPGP

[9] = tested on: ALK tyrosine kinase receptor (Homo sapiens), Q9UM73 [L1196M]; assay: as §1
[10] = tested on: ALK tyrosine kinase receptor (Homo sapiens), Q9UM73 [C1156Y]; assay: as §1
[11] = tested on: ALK tyrosine kinase receptor (Homo sapiens), Q9UM73 [F1174S]; assay: as §1
[12] = tested on: ALK tyrosine kinase receptor (Homo sapiens), Q9UM73 [F1174L]; assay: as §1
ALK tyrosine kinase receptor (Homo sapiens), Q9UM73 [F1174L], sequence (Q9UM73 whole entry F1174L): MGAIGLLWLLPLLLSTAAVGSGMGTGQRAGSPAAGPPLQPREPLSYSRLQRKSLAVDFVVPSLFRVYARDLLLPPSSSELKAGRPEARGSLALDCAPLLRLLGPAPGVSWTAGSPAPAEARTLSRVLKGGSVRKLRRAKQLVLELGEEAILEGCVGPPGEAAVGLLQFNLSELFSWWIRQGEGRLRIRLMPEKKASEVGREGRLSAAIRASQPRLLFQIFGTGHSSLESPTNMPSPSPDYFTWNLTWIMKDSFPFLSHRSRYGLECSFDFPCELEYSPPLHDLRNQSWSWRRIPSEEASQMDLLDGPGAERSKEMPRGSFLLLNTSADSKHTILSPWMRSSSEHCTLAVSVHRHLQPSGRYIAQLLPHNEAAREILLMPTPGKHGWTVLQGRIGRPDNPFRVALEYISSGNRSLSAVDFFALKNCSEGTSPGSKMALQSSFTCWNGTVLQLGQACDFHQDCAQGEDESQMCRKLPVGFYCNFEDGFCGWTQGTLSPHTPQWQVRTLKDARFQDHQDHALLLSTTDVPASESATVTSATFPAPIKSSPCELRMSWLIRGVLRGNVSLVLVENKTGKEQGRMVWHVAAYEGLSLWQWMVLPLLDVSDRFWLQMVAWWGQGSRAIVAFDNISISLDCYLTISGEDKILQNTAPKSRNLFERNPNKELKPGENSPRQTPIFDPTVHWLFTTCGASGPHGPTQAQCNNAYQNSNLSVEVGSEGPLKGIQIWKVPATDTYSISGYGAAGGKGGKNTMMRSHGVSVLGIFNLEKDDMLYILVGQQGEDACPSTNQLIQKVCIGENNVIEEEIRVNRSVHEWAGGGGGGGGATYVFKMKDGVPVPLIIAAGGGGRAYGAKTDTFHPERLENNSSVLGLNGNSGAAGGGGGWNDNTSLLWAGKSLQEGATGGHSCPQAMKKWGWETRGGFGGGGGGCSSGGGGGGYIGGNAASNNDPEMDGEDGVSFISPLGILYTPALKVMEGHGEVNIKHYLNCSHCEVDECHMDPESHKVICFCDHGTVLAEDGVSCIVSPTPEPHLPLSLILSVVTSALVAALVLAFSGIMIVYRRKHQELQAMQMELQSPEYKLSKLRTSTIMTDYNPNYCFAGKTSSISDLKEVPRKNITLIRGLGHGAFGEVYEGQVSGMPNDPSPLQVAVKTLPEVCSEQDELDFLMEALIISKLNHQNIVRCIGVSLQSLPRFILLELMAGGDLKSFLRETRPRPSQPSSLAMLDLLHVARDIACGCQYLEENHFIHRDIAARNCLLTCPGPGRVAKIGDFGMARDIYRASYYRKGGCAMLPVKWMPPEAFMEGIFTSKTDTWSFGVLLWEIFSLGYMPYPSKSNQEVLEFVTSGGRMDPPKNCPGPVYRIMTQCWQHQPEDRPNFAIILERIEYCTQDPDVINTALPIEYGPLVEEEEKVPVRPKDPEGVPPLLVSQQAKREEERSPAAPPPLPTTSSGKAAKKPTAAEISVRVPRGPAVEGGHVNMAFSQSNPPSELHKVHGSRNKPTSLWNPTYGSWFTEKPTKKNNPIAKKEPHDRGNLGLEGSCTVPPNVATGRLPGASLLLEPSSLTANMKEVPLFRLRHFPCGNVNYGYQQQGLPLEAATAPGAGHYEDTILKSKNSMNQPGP

[13] = tested on: ALK tyrosine kinase receptor (Homo sapiens), Q9UM73 [R1275Q]; assay: as §1
ALK tyrosine kinase receptor (Homo sapiens), Q9UM73 [R1275Q], sequence (Q9UM73 whole entry R1275Q): as the sequence (Q9UM73 whole entry F1174L) above, with L1174F, R1275Q counted along it

[14] = target: Tyrosine-protein kinase Srms (Homo sapiens) (UniProt Q9H3Y6); assay: Selectivity interaction (KinomeScan (DiscoverX)) EUB0001619a SRMS; details: at 1 µM
[15] = tested on: Phosphatidylinositol 4,5-bisphosphate 3-kinase catalytic subunit alpha isoform (Homo sapiens), P42336 [E545K]; details: at 10 µM
[16] = target: Angiopoietin-1 receptor (Homo sapiens) (UniProt Q02763); assay: Selectivity interaction (KinomeScan (DiscoverX)) EUB0000607a TEK; details: at 10 µM

Work on Cc1cc([C@@H](C)Nc2ccccc2C(=O)O)c2nc(N3CCOCC3)cc(=O)n2c1 [AZD-6482] yielded a % of control [1] of 100%.

With CCc1cc(Nc2nccc(-c3c(-c4ccc(OC)c(C(=O)Nc5c(F)cccc5F)c4)nc4ccccn34)n2)c(OC)cc1N1CCC(N2CCN(S(C)(=O)=O)CC2)CC1 the % of inhibition [2] was 59%.

Cc1cnc(Nc2ccc(F)cc2Cl)nc1-c1c[nH]c(C(=O)N[C@H](CO)c2cccc(Cl)c2)c1 showed a % of inhibition [3] of 11%.

In the case of Cn1cc(Nc2nccc(N3CC4CCC(C3)N4C(=O)[C@@H]3CC3(F)F)n2)cn1, the % of inhibition [4] is reported as 62%.

In the case of COCC(=O)NC/C=C/c1ccc2ncnc(Nc3ccc(Oc4ccc(C)nc4)c(C)c3)c2c1 [CP-724714], the % of control [5] is reported as 99%.

For COc1cc(N(C)c2ccnc3ccc(C(F)(F)F)cc23)cc(OC)c1OC, the % binding [6] was 100%.

For Nc1cnc(N2CCc3cc(S(=O)(=O)Nc4c(F)cc(Cl)cc4F)cc(N4CCCC4=O)c32)nc1 [TP-020n], the % of control [7] was 79%.

Work on C=CC(=O)Nc1cccc(C(=O)Nc2ccc(Nc3cc(-c4[nH]c(SC)nc4C)ccn3)cc2)c1 yielded a % of control ([8]; at 1 µM) of 98%, a % of control ([8]; at 5 µM) of 72% and a % of control ([9]; at 1 µM) of 72%. For the same molecule, the % of control ([9]; at 5 µM) was 55%, the % of control ([10]; at 1 µM) was 86% and the % of control ([10]; at 5 µM) was 69%. For the same molecule, the % of control ([11]; at 1 µM) was 92%, the % of control ([11]; at 5 µM) was 72% and the % of control ([12]; at 1 µM) was 84%. For the same molecule, the % of control ([12]; at 5 µM) was 74%, the % of control ([13]; at 1 µM) was 85% and the % of control ([13]; at 5 µM) was 73%.

Work on N#Cc1cccc(-c2c[nH]c3ncnc(N4CCOCC4)c23)c1 yielded a % of control [14] of 94%.

CNC(=O)Nc1ccc(-c2nc(N3CC4CCC(C3)O4)c3cnn(C4CCC5(CC4)OCCO5)c3n2)cc1 gave a % of control [15] of 11% and a % of control [16] of 100%.
